According to PMC2907470 (Nature chemical biology, 2010):

Columns and labels:
Scn-Ngal [1] = target: T1, Scn-Ngal (Homo sapiens, UniProt P80188); format: binding; conditions: for iron retention by Scn-Ngal, dose-response: urinary compounds 0.5–100 µM, Scn-Ngal 10 µM
Scn-Ngal [2] = target: T1, Scn-Ngal; test: Release of ligands from Scn-Ngal on acidification; format: binding; conditions: acidification from neutral pH; n = 3
[3] = system: embryonic kidney FoxD1+ stromal cells; test: Capture of 55Fe from Scn-Ngal:catechol:55Fe by kidney stromal cells; format: cell-based, mouse; conditions: 37°C, bafilomycin 0.15 nmole, 3 hrs
[4] = target: Scn-Ngal K125A, K134A mutant (Homo sapiens, UniProt P80188, K145A/K154A); test: 55Fe retention by Scn-Ngal K125A, K134A mutant; format: binding; conditions: K125 and K134 mutated to alanine, versus wild type
C57BL/6 mice = format: in vivo, mouse; conditions: for organ distribution: i.p., 20 and 180 min; for cleared in the urine: by 180 min after introduction
Scn-Ngal [5] = target: T1, Scn-Ngal; test: Fluorescence quenching analysis of Scn-Ngal with free catechol ligands; format: binding; conditions: with iron III versus catechol itself
[6] = Stability of catechol in solution monitored by NMR; conditions: monitored for 20 hrs by NMR, D2O
[7] = system: kidney proximal tubule LLCPK1 cells; test: Capture of 55Fe from Scn-Ngal:catechol:55Fe by LLCPK cells; format: cell-based; conditions: 37°C
LLCPK cells = test: Iron responsive 5'IRE-YFP reporter in LLCPK cells; format: cell-based; conditions: 100 or 500 µg/ml, 16 hrs, compared to DMEM alone
[8] = Generation of hydroxyl radicals; format: biochemical; conditions: 10 µM FeCl3, 30 µM catechols, 2 mM H2O2; Scn-Ngal 10 µM where added

Scn-Ngal K125A, K134A mutant, sequence (P80188 21-198 K145A/K154A): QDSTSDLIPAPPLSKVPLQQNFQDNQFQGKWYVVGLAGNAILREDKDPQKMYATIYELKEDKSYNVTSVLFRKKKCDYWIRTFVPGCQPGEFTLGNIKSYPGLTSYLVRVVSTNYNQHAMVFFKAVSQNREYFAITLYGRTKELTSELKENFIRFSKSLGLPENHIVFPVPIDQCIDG

## O=C(N[C@H]1COC(=O)[C@@H](NC(=O)c2cccc(O)c2O)COC(=O)[C@@H](NC(=O)c2cccc(O)c2O)COC1=O)c1cccc(O)c1O [Ent, reference compound]
Scn-Ngal [1]; 50 fold molar excess of Ent presaturated with non-radioactive iron
  association of urinary catechols with Scn-Ngal in presence of competitor: blocked

## Oc1cccc(O)c1O [Pyrogallol, benzene-1,2,3-triol]
Scn-Ngal [2]
  pH at which Scn-Ngal:ligand:FeIII complex dissociated: < 4
Scn-Ngal [1]
  iron retention by Scn-Ngal, dose-response: saturable iron retention

## bafilomycin [reference compound]
[3]
  55Fe uptake: inhibited

## Cc1ccc(O)c(O)c1 [4-methylcatechol, 4-methylbenzene-1,2-diol]
Scn-Ngal [1]
  iron retention by Scn-Ngal, dose-response: saturable iron retention

## O=C(N[C@H]1COC(=O)[C@@H](NC(=O)c2cccc([O-])c2[O-])COC(=O)[C@@H](NC(=O)c2cccc([O-])c2[O-])COC1=O)c1cccc([O-])c1[O-].[Fe+3] [Ent:Fe]
[4]
  capture of siderophore:Fe by mutant Scn-Ngal: ineffective

## Cc1cccc(O)c1O [3-methylcatechol, 3-methylbenzene-1,2-diol]
Scn-Ngal [2]
  pH at which Scn-Ngal:ligand:FeIII complex dissociated: 6.0
Scn-Ngal [1]
  iron retention by Scn-Ngal, dose-response: saturable iron retention

## transferrin:iron: iron-loaded transferrin, comparator [reference compound]
C57BL/6 mice
  organ distribution: accumulated in the bone marrow

## Oc1ccccc1O [Catechol, benzene-1,2-diol]
Scn-Ngal [2]
  pH at which Scn-Ngal:ligand:FeIII complex dissociated: 6.0
Scn-Ngal [5]
  increase in binding affinity in the presence of iron III: 100 fold
Scn-Ngal [1]
  iron retention by Scn-Ngal, dose-response: saturable iron retention
C57BL/6 mice
  cleared in the urine: 80.56±8.8%
[6]
  stability in solution: stable in solution

B1: Scn-Ngal:catechol:Fe: complex of the lipocalin Scn-Ngal with catechol and iron (protein, UniProt P80188 21-198, looked up)
Neutrophil …: QDSTSDLIPAPPLSKVPLQQNFQDNQFQGKWYVVGLAGNAILREDKDPQKMYATIYELKEDKSYNVTSVLFRKKKCDYWIRTFVPGCQPGEFTLGNIKSYPGLTSYLVRVVSTNYNQHAMVFFKKVSQNREYFKITLYGRTKELTSELKENFIRFSKSLGLPENHIVFPVPIDQCIDG
modifications: complex with catechol and iron
[3]
  55Fe uptake: Uptake occurred
C57BL/6 mice
  cleared in the urine: 56.4±6.7%
  organ distribution: targeted the kidney
[7]
  55Fe uptake: Uptake occurred
LLCPK cells
  iron dependent YFP probe: activated

B2: Scn-Ngal: Neutrophil Gelatinase Associated Lipocalin, recombinant, expressed in BL-21 bacteria (protein, UniProt P80188 21-198, looked up)
Neutrophil …: QDSTSDLIPAPPLSKVPLQQNFQDNQFQGKWYVVGLAGNAILREDKDPQKMYATIYELKEDKSYNVTSVLFRKKKCDYWIRTFVPGCQPGEFTLGNIKSYPGLTSYLVRVVSTNYNQHAMVFFKKVSQNREYFKITLYGRTKELTSELKENFIRFSKSLGLPENHIVFPVPIDQCIDG
[8]
  conversion of HPF to fluorescein (hydroxyl radical formation): blocked the reaction
